{"source": "paper PMC11926788", "about": "“Effect of SSR504734, a Selective Glycine Transporter Type 1 Inhibitor, on Seizure Thresholds, Neurotransmitter Levels, and Inflammatory Markers in Mice” (ACS Chemical Neuroscience, 2025)", "assay": "Pharmacokinetic study of SSR504734 in mice (serum and tissue concentrations by LC-MS/MS, noncompartmental analysis)", "type": "in vivo", "protocol": "SSR504734 was administered i.p. at the dose of 30 mg/kg, and mice were sacrificed by decapitation at 5, 15, 30, 60, 120, 240, and 480 min after dosing. The trunk blood samples (∼1 mL) were collected in polypropylene tubes and allowed to clot at room temperature. Subsequently, the blood was centrifuged at 5600 rpm for 10 min. Serum samples were collected in new tubes. Immediately after decapitation, brains and other tissues such as the liver, lungs, kidneys, heart, spleen, gut, and adipose were removed from the skull and washed with cold 0.9% NaCl. Samples were kept at −80 °C until the day of analysis.\nSerum and tissue concentrations of SSR504734 in mice were quantified by a liquid chromatography tandem mass spectrometry (LC-MS/MS) method. Stock solutions of the studied compound were prepared in methanol at a concentration of 1 mg/mL. Working solutions were prepared by dilution of the standard solutions in acetonitrile/water 1:1 (v/v). Tissue homogenates were obtained by homogenization of each tissue in distilled water at a ratio of 1:4 (w/v) using a basic T10 ULTRA-TURRAX tissue homogenizer (IKA, Poland). Mouse serum and tissues, which were used to prepare standard samples and quality control (QC) samples, were harvested from untreated healthy animals after exsanguination. Standard and QC samples were prepared by adding 5 μL of working solutions of SSR504734 to 45 μL of mouse serum or 45 μL of tissue homogenates. Real serum and homogenate samples, QC samples, and standard samples were subjected to the same precipitation procedure. Briefly, 150 μL of 0.1% formic acid solution in acetonitrile containing pentoxifylline (PTX) as an internal standard (IS) at a concentration of 5 ng/mL was added to 50 μL of analyzed serum, homogenate, standard samples, or QC samples in Eppendorf tubes and mixed on a vortex mixer for 10 min (IKA Vibrax VXR, Germany). Subsequently, samples were centrifuged at 10,000 rpm for 10 min at room temperature (Eppendorf miniSpin centrifuge). 2 μL of supernatant was subjected to LC-MS/MS analysis using an Exion LC AC HPLC system coupled to a SCIEX QTRAP 4500 triple-quadrupole mass spectrometer (Danaher Corporation, Framingham, MA, US). Chromatographic separation was performed using a Hypersil Gold C18 analytical column (2.1 × 50 mm, 3 μm) (Thermo Scientific, USA) at 25 °C. The mobile phase consisting of water containing 0.1% formic acid and acetonitrile containing 0.1% formic acid (60:40, v/v) was pumped at a flow rate of 0.5 mL/min in an isocratic elution mode. All detections were performed in positive ion mode. The selected reaction monitoring (SRM) for the transitions was m/z 397.2 → 207.0 and m/z 397.2 → 174.2 (quantifier and qualifier) for SSR504734 and m/z 279 → 181 for IS. The optimal MS parameters for SSR504734 multiple reaction monitoring (MRM) transitions selected by continuous infusion of the standard solution at the rate of 7 μL/min using a Harvard infusion pump were as follows: the declustering potential was 120 V, the collision energy was 35.6 V, the entrance potential was 10 V, and the cell exit potential was 6 V. These parameters for IS were 60, 24, 10, and 6 V, respectively. An additional tuning optimization of gas flows and temperatures was performed by flow injection analysis. The ion source temperature was maintained at 450 °C, the ion spray voltage at 4000 V, the curtain gas (CUR) was set at 25 psi, the nebulizer (GS1) and TIS (GS2) gases at 40.0 and 50.0 psi, respectively, and the collision gas (CAD) at Medium.\nData acquisition and processing were carried out using Analyst 1.7 software. The calibration curves were constructed by plotting the ratio of the peak area of the analyte to the peak area of the IS vs the concentration of the analyte and generated by weighted (1/y) nonlinear regression analysis by fitting a quadratic formula. […]", "key": {"[1]": {"settings": "mouse, ip, adipose, single 30 mg/kg i.p."}, "[2]": {"settings": "mouse, ip, brain, single 30 mg/kg i.p."}, "[3]": {"settings": "mouse, ip, gut, single 30 mg/kg i.p."}, "[4]": {"settings": "mouse, ip, heart, single 30 mg/kg i.p."}, "[5]": {"settings": "mouse, ip, kidneys, single 30 mg/kg i.p."}, "[6]": {"settings": "mouse, ip, liver, single 30 mg/kg i.p."}, "[7]": {"settings": "mouse, ip, lungs, single 30 mg/kg i.p."}, "[8]": {"settings": "mouse, ip, serum, single 30 mg/kg i.p."}, "[9]": {"settings": "mouse, ip, spleen, single 30 mg/kg i.p."}}, "note": "Counter-ions that a name gives are not always drawn. Like-named read-outs stand apart in the source and are kept apart here."}
{"smiles": "O=C(NC(c1ccccc1)C1CCCCN1)c1cccc(C(F)(F)F)c1Cl", "note": "[SSR504734, 2-chloro-N-[(S)-phenyl[(2S)-piperidin-2-yl]methyl]-3-trifluoromethyl benzamide monohydrochloride]", "values": [{"measurement": "AUClast", "setting": "adipose, single 30 mg/kg i.p.", "result": "3347.89 µg·min/mL (g tissue)"}, {"measurement": "AUClast", "setting": "brain, single 30 mg/kg i.p.", "result": "1137.50 µg·min/mL (g tissue)"}, {"measurement": "Kp (tissue-to-serum partition coefficient, AUClast(tissue)/AUClast(serum))", "setting": "brain, single 30 mg/kg i.p., 30 mg/kg", "result": 3.05}, {"measurement": "AUClast", "setting": "gut, single 30 mg/kg i.p.", "result": "10606.43 µg·min/mL (g tissue)"}, {"measurement": "AUClast", "setting": "heart, single 30 mg/kg i.p.", "result": "4841.83 µg·min/mL (g tissue)"}, {"measurement": "AUClast", "setting": "kidneys, single 30 mg/kg i.p.", "result": "16781.00 µg·min/mL (g tissue)"}, {"measurement": "AUClast", "setting": "liver, single 30 mg/kg i.p.", "result": "8821.36 µg·min/mL (g tissue)"}, {"measurement": "AUClast", "setting": "lungs, single 30 mg/kg i.p.", "result": "33485.57 µg·min/mL (g tissue)"}, {"measurement": "Kp", "setting": "mouse, adipose (relative to serum), ip, 30 mg/kg, adipose, single 30 mg/kg i.p., read-out: Kp (tissue-to-serum partition coefficient)", "result": 8.98}, {"measurement": "Kp", "setting": "mouse, brain (relative to serum), ip, 30 mg/kg, brain, single 30 mg/kg i.p., read-out: Kp (tissue-to-serum partition coefficient, AUClast(tissue)/AUClast(serum))", "result": "> 3"}, {"measurement": "Kp", "setting": "mouse, gut (relative to serum), ip, 30 mg/kg, gut, single 30 mg/kg i.p., read-out: Kp (tissue-to-serum partition coefficient)", "result": 28.5}, {"measurement": "Kp", "setting": "mouse, heart (relative to serum), ip, 30 mg/kg, heart, single 30 mg/kg i.p., read-out: Kp (tissue-to-serum partition coefficient)", "result": 13}, {"measurement": "Cmax", "setting": "mouse, ip, 30 mg/kg i.p., assuming brain tissue density of ∼1 g/mL, read-out: Cmax in the brain tissue", "result": 5150, "unit": "ng/mL"}, {"measurement": "MRT", "setting": "[1]", "result": 1.37, "unit": "h"}, {"measurement": "Tmax", "setting": "[1]", "result": 0.0833, "unit": "h"}, {"measurement": "half-life", "setting": "[1]", "result": 1.33, "unit": "h"}, {"measurement": "Cmax", "setting": "mouse, ip, adipose, single 30 mg/kg i.p., read-out: Cmax", "result": 65700, "unit": "ng/g"}, {"measurement": "MRT", "setting": "[2]", "result": 2.36, "unit": "h"}, {"measurement": "Tmax", "setting": "[2]", "result": 0.5, "unit": "h"}, {"measurement": "half-life", "setting": "[2]", "result": 1.75, "unit": "h"}, {"measurement": "Cmax", "setting": "mouse, ip, brain, single 30 mg/kg i.p., read-out: Cmax", "result": 5150, "unit": "ng/g"}, {"measurement": "CL/F", "setting": "mouse, ip, from serum vs time profile, 30 mg/kg i.p., read-out: apparent clearance (CL/F)", "result": 77.8, "unit": "mL/min/kg"}, {"measurement": "Vd/F", "setting": "mouse, ip, from serum vs time profile, 30 mg/kg i.p., read-out: volume of distribution during the terminal phase (Vz/F)", "result": 11.1, "unit": "L/kg"}, {"measurement": "MRT", "setting": "[3]", "result": 1.96, "unit": "h"}, {"measurement": "Tmax", "setting": "[3]", "result": 0.0833, "unit": "h"}, {"measurement": "half-life", "setting": "[3]", "result": 1.73, "unit": "h"}, {"measurement": "Cmax", "setting": "mouse, ip, gut, single 30 mg/kg i.p., read-out: Cmax", "result": 77900, "unit": "ng/g"}, {"measurement": "MRT", "setting": "[4]", "result": 1.68, "unit": "h"}, {"measurement": "Tmax", "setting": "[4]", "result": 0.25, "unit": "h"}, {"measurement": "half-life", "setting": "[4]", "result": 1.31, "unit": "h"}, {"measurement": "Cmax", "setting": "mouse, ip, heart, single 30 mg/kg i.p., read-out: Cmax", "result": 38300, "unit": "ng/g"}, {"measurement": "MRT", "setting": "[5]", "result": 2.03, "unit": "h"}, {"measurement": "Tmax", "setting": "[5]", "result": 0.5, "unit": "h"}, {"measurement": "half-life", "setting": "[5]", "result": 1.4, "unit": "h"}, {"measurement": "Cmax", "setting": "mouse, ip, kidneys, single 30 mg/kg i.p., read-out: Cmax", "result": 93500, "unit": "ng/g"}, {"measurement": "MRT", "setting": "[6]", "result": 1.76, "unit": "h"}, {"measurement": "Tmax", "setting": "[6]", "result": 0.0833, "unit": "h"}, {"measurement": "half-life", "setting": "[6]", "result": 1.52, "unit": "h"}, {"measurement": "Cmax", "setting": "mouse, ip, liver, single 30 mg/kg i.p., read-out: Cmax", "result": 101000, "unit": "ng/g"}, {"measurement": "MRT", "setting": "[7]", "result": 2.6, "unit": "h"}, {"measurement": "Tmax", "setting": "[7]", "result": 0.25, "unit": "h"}, {"measurement": "half-life", "setting": "[7]", "result": 2.04, "unit": "h"}, {"measurement": "Cmax", "setting": "mouse, ip, lungs, single 30 mg/kg i.p., read-out: Cmax", "result": 147000, "unit": "ng/g"}, {"measurement": "MRT", "setting": "[8]", "result": 1.86, "unit": "h"}, {"measurement": "Tmax", "setting": "[8]", "result": 0.25, "unit": "h"}, {"measurement": "half-life", "setting": "[8]", "result": 1.65, "unit": "h"}, {"measurement": "Cmax", "setting": "mouse, ip, serum, single 30 mg/kg i.p., read-out: Cmax", "result": 3000, "unit": "ng/mL"}, {"measurement": "MRT", "setting": "[9]", "result": 1.66, "unit": "h"}, {"measurement": "Tmax", "setting": "[9]", "result": 0.25, "unit": "h"}, {"measurement": "half-life", "setting": "[9]", "result": 1.6, "unit": "h"}, {"measurement": "Cmax", "setting": "mouse, ip, spleen, single 30 mg/kg i.p., read-out: Cmax", "result": 193000, "unit": "ng/g"}, {"measurement": "Kp", "setting": "mouse, kidneys (relative to serum), ip, 30 mg/kg, kidneys, single 30 mg/kg i.p., read-out: Kp (tissue-to-serum partition coefficient)", "result": 45}, {"measurement": "Kp", "setting": "mouse, liver (relative to serum), ip, 30 mg/kg, liver, single 30 mg/kg i.p., read-out: Kp (tissue-to-serum partition coefficient)", "result": 23.7}, {"measurement": "Kp", "setting": "mouse, lungs (relative to serum), ip, 30 mg/kg, lungs, single 30 mg/kg i.p., read-out: Kp (tissue-to-serum partition coefficient)", "result": 89.8}, {"measurement": "Kp", "setting": "mouse, spleen (relative to serum), ip, 30 mg/kg, spleen, single 30 mg/kg i.p., read-out: Kp (tissue-to-serum partition coefficient)", "result": 50}, {"measurement": "AUClast", "setting": "serum, single 30 mg/kg i.p.", "result": "372.73 µg·min/mL (g tissue)"}, {"measurement": "AUClast", "setting": "spleen, single 30 mg/kg i.p.", "result": "18616.26 µg·min/mL (g tissue)"}]}
